Measured values reported in the supplement of paper PMC6045584.
± gives the standard deviation of the averaged measurements.

Key:
SUNITINIB = compound: CCN(CC)CCNC(=O)c1c(C)[nH]c(/C=C2\C(=O)Nc3ccc(F)cc32)c1C [SUNITINIB]; assay: surviving fraction relative to DMSO-only wells; higher = less growth inhibition; conditions: exposure time: 5 days
How it was run: (§1)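 Tumour cell lines were seeded in log phase at 250–500 cells per well into 384-well plates. Starting 24 hours later, inhibitors were present continuously for five days at 0.5, 1, 5, 10, 50, 100, 500 and 1000 nM. Surviving fraction, from CellTiter-Glo luminescence, is normalised to the median of DMSO-only wells. Three screens per line were required, with replicate Pearson r >0.7 and median Z' >0.3 for a line to be kept.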

MK0752 = compound: O=C(O)CC[C@H]1CC[C@@](c2cc(F)ccc2F)(S(=O)(=O)c2ccc(Cl)cc2)CC1 [MK0752]; assay: as above; conditions: exposure time: 5 days
How it was run: as §1

| Test System | surviving fraction (SUNITINIB; 0.5 nM) | surviving fraction (SUNITINIB; 1 nM) | surviving fraction (SUNITINIB; 50 nM) | surviving fraction (SUNITINIB; 100 nM) | surviving fraction (SUNITINIB; 500 nM) | surviving fraction (SUNITINIB; 1000 nM) | surviving fraction (MK0752; 0.5 nM) | surviving fraction (MK0752; 1 nM) | surviving fraction (MK0752; 5 nM) | surviving fraction (MK0752; 10 nM) | surviving fraction (MK0752; 50 nM) | surviving fraction (MK0752; 100 nM) | surviving fraction (MK0752; 500 nM) | surviving fraction (MK0752; 1000 nM) | surviving fraction (SUNITINIB; 5 nM) | surviving fraction (SUNITINIB; 10 nM) |
| --- | --- | --- | --- | --- | --- | --- | --- | --- | --- | --- | --- | --- | --- | --- | --- | --- |
| 22RV1 PROSTATE | 0.975 ± 0.028 | 0.952 ± 0.021 | 0.937 ± 0.1 | 0.932 ± 0.027 | 0.739 ± 0.049 | 0.41 ± 0.029 | 1.08 ± 0.069 | 1.1 ± 0.012 | 1.09 ± 0.021 | 1.04 ± 0.058 | 1.07 ± 0.092 | 1.11 ± 0.07 | 1.09 ± 0.044 | 1.08 ± 0.026 | – | – |
| 93VU HEADNECK | 0.817 ± 0.07 | 0.819 ± 0.059 | 1.11 ± 0.055 | 0.93 ± 0.057 | 0.261 ± 0.026 | 0.158 ± 0.025 | 1.19 ± 0.15 | 1.25 ± 0.054 | 1.14 ± 0.041 | 1.23 ± 0.086 | 1.16 ± 0.016 | 1.23 ± 0.088 | 1.13 ± 0.051 | 1.18 ± 0.1 | 0.85 ± 0.03 | 0.823 ± 0.078 |
| 143B BONE | 0.982 ± 0.044 | 1.01 ± 0.026 | 1.01 ± 0.019 | 1.008 ± 0.0042 | 0.824 ± 0.067 | 0.461 ± 0.055 | 1 ± 0.028 | 1.04 ± 0.03 | 1.022 ± 0.0064 | 1.05 ± 0.015 | 1.02 ± 0.044 | 1.05 ± 0.026 | 1.01 ± 0.02 | 1.06 ± 0.023 | 1.01 ± 0.022 | 1.02 ± 0.035 |
| A549 LUNG | 0.922 ± 0.021 | 0.907 ± 0.029 | 0.991 ± 0.026 | – | 1.04 ± 0.014 | 1.03 ± 0.02 | 1.02 ± 0.053 | 1.03 ± 0.043 | 1.06 ± 0.059 | 1.02 ± 0.062 | 1.06 ± 0.054 | 1.09 ± 0.061 | 1.07 ± 0.063 | 1.1 ± 0.038 | 0.903 ± 0.013 | 0.89 ± 0.031 |
| ASKA SYNOVIAL | 0.864 ± 0.079 | 0.768 ± 0.059 | 0.867 ± 0.043 | 0.659 ± 0.04 | 0.441 ± 0.034 | 0.104 ± 0.0093 | 1.12 ± 0.023 | 1.16 ± 0.02 | 1.24 ± 0.038 | 1.22 ± 0.025 | 1.22 ± 0.11 | 1.23 ± 0.1 | 1.14 ± 0.087 | 1.14 ± 0.017 | 0.858 ± 0.028 | 0.328 ± 0.056 |
| BT20 BREAST | 0.794 ± 0.14 | 0.732 ± 0.05 | 1 ± 0.16 | 1.23 ± 0.23 | 1.31 ± 0.2 | 1.21 ± 0.16 | 1.16 ± 0.11 | 1.03 ± 0.11 | 1.09 ± 0.12 | 1.1 ± 0.17 | 1.03 ± 0.17 | 0.941 ± 0.19 | 0.914 ± 0.096 | 0.829 ± 0.19 | 0.757 ± 0.081 | 0.783 ± 0.14 |
| BT549 BREAST | 0.8 ± 0.11 | 0.861 ± 0.048 | 1.11 ± 0.13 | 1.12 ± 0.16 | 1.19 ± 0.11 | 0.785 ± 0.069 | 1.08 ± 0.14 | 1.09 ± 0.14 | 1.1 ± 0.18 | 1.11 ± 0.15 | 0.986 ± 0.1 | 1.04 ± 0.07 | 0.89 ± 0.095 | 1.03 ± 0.075 | 0.854 ± 0.065 | 0.794 ± 0.13 |
| CADOES1 SOFT TISSUE | – | 0.976 ± 0.12 | 0.885 ± 0.086 | 1.03 ± 0.032 | – | 0.609 ± 0.11 | 0.976 ± 0.09 | 1.02 ± 0.13 | 0.994 ± 0.073 | 0.953 ± 0.054 | 1.02 ± 0.14 | 0.849 ± 0.041 | 0.801 ± 0.086 | 0.931 ± 0.11 | 0.892 ± 0.044 | 0.967 ± 0.083 |
| CAL51 BREAST | 0.886 ± 0.047 | 0.895 ± 0.012 | – | 1.01 ± 0.035 | 0.52 ± 0.031 | 0.202 ± 0.031 | 1.02 ± 0.015 | 0.995 ± 0.035 | 0.972 ± 0.027 | 0.967 ± 0.064 | 1.05 ± 0.013 | 0.992 ± 0.038 | 1.02 ± 0.036 | 1.02 ± 0.041 | 0.94 ± 0.011 | 0.934 ± 0.053 |
| CAL120 BREAST | 0.881 ± 0.021 | 0.882 ± 0.036 | 0.891 ± 0.023 | 0.891 ± 0.038 | 0.64 ± 0.039 | 0.386 ± 0.037 | 1.009 ± 0.0055 | 1 ± 0.047 | 1.025 ± 0.0088 | 1.01 ± 0.024 | 1.03 ± 0.018 | 1.07 ± 0.028 | 1.023 ± 0.0088 | 1 ± 0.054 | 0.876 ± 0.047 | – |
| CASKI CERVIX | 0.757 ± 0.041 | 0.731 ± 0.072 | 0.891 ± 0.088 | 0.717 ± 0.039 | 0.166 ± 0.0025 | 0.0627 ± 0.004 | 0.896 ± 0.038 | 0.973 ± 0.061 | 1.01 ± 0.047 | 0.952 ± 0.03 | 1.08 ± 0.045 | 1.09 ± 0.061 | 0.987 ± 0.054 | 0.943 ± 0.057 | 0.792 ± 0.052 | 0.763 ± 0.064 |
| CHLA90 AUTONOMIC GANGLIA | 0.885 ± 0.043 | 0.803 ± 0.062 | – | 0.776 ± 0.047 | 0.779 ± 0.015 | 0.201 ± 0.02 | 0.984 ± 0.034 | 1.05 ± 0.039 | 1.05 ± 0.04 | 1.009 ± 0.0045 | 1.01 ± 0.026 | 0.952 ± 0.044 | 1.1 ± 0.037 | 1.09 ± 0.018 | 0.805 ± 0.025 | 0.248 ± 0.019 |
| CME SYNOVIAL | 0.928 ± 0.17 | 0.551 ± 0.019 | – | 0.82 ± 0.032 | 0.767 ± 0.1 | 0.0447 ± 0.0074 | 1.27 ± 0.23 | 1.31 ± 0.15 | 1.29 ± 0.09 | 1.39 ± 0.029 | 1.46 ± 0.22 | 1.47 ± 0.2 | 1.24 ± 0.11 | 1.34 ± 0.14 | – | 0.036 ± 0.0027 |
| COLO320DM LARGE INTESTINE | – | 0.921 ± 0.045 | 0.929 ± 0.057 | 0.871 ± 0.075 | 0.324 ± 0.026 | 0.115 ± 0.011 | 1.09 ± 0.11 | 1.18 ± 0.065 | 1.16 ± 0.1 | 1.18 ± 0.049 | 1.14 ± 0.01 | 1.2 ± 0.087 | 1.17 ± 0.096 | 1.25 ± 0.27 | 0.957 ± 0.063 | 0.369 ± 0.055 |
| DU4475 BREAST | 0.742 ± 0.17 | 0.797 ± 0.12 | 0.668 ± 0.12 | 0.649 ± 0.21 | 0.428 ± 0.18 | 0.1 ± 0.029 | 1.04 ± 0.097 | 0.997 ± 0.16 | 0.927 ± 0.19 | 1.03 ± 0.21 | 0.967 ± 0.22 | 0.911 ± 0.26 | 0.976 ± 0.35 | 1.05 ± 0.38 | 0.716 ± 0.14 | 0.771 ± 0.18 |
| H23 LUNG | 0.953 ± 0.023 | 0.918 ± 0.013 | – | 0.829 ± 0.014 | 0.598 ± 0.06 | 0.368 ± 0.021 | 1.064 ± 0.004 | 1.11 ± 0.053 | 1.1 ± 0.061 | 1.07 ± 0.063 | 1.104 ± 0.0052 | 1.17 ± 0.1 | 1.103 ± 0.0038 | 1.13 ± 0.058 | – | 0.885 ± 0.045 |
| HCC38 BREAST | 0.845 ± 0.24 | 0.893 ± 0.22 | 1.16 ± 0.1 | 1.18 ± 0.11 | 1.04 ± 0.22 | 0.76 ± 0.21 | 1.22 ± 0.34 | 1.15 ± 0.21 | 1.27 ± 0.18 | 1.24 ± 0.044 | 1.21 ± 0.15 | 1.34 ± 0.28 | 1.12 ± 0.03 | 1.1 ± 0.16 | 0.966 ± 0.15 | – |
| HCC70 BREAST | 1.01 ± 0.029 | – | – | – | 1.15 ± 0.11 | – | 1.1 ± 0.079 | 1.07 ± 0.05 | 1.132 ± 0.01 | 1.08 ± 0.029 | 1.11 ± 0.073 | 1.08 ± 0.13 | 1.03 ± 0.055 | 0.924 ± 0.074 | 1 ± 0.096 | 0.904 ± 0.045 |
| HCC78 LUNG | 0.831 ± 0.076 | 0.925 ± 0.054 | 1.24 ± 0.33 | 1.34 ± 0.44 | 1.67 ± 0.23 | 0.633 ± 0.1 | 0.916 ± 0.12 | 0.966 ± 0.16 | 1.08 ± 0.16 | 1.07 ± 0.12 | 1.17 ± 0.062 | 1.06 ± 0.15 | 0.839 ± 0.24 | 0.957 ± 0.17 | 0.95 ± 0.099 | 0.46 ± 0.089 |
| HCC202 BREAST | 0.879 ± 0.093 | 0.806 ± 0.23 | 1.26 ± 0.17 | – | 0.714 ± 0.15 | 0.639 ± 0.06 | 1.28 ± 0.66 | 0.775 ± 0.51 | 0.94 ± 0.78 | 1.27 ± 0.18 | 1.23 ± 0.21 | 1.21 ± 0.1 | 1.31 ± 0.069 | 1.39 ± 0.36 | 1.29 ± 0.32 | 0.801 ± 0.19 |
| HCC1395 BREAST | 0.977 ± 0.037 | 0.829 ± 0.066 | 1.09 ± 0.11 | 1.06 ± 0.17 | 0.971 ± 0.046 | 1.01 ± 0.12 | 1.09 ± 0.017 | 0.987 ± 0.16 | 1.08 ± 0.036 | 1.1 ± 0.099 | 1.06 ± 0.011 | 1.06 ± 0.15 | 0.975 ± 0.028 | 0.925 ± 0.12 | 0.9396 ± 0.0017 | 0.969 ± 0.094 |
